From US20100216779A1 (GLAXOSMITHKLINE LLC, priority 2007, published 2010)

Tests used:
[1] = test system: NCI-H929 (multiple myeloma); experiment: Inhibition of cell proliferation, CellTiter-Glo, NCI-H929; format: cell-based; details: Homo sapiens, 72 h
How it was run: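 Cells were grown in medium with 10% FBS at 37° C, 5% CO2. Cell number was read as CellTiter-Glo luminescence (cellular ATP), with untreated wells as control.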

[2] = molecular target: T1, IR (NIH-3T3 cells over expressing human IGF-1R or IR) (Homo sapiens, UniProt P06213); experiment: IR cellular autophosphorylation (DELFIA); format: cell-based; details: NIH-3T3 cells over expressing IR, insulin stimulated
T1 construct: expressed in transfected cells; host or cells: NIH-3T3 (mouse fibroblasts)
T1 sequence (P06213 28-1382): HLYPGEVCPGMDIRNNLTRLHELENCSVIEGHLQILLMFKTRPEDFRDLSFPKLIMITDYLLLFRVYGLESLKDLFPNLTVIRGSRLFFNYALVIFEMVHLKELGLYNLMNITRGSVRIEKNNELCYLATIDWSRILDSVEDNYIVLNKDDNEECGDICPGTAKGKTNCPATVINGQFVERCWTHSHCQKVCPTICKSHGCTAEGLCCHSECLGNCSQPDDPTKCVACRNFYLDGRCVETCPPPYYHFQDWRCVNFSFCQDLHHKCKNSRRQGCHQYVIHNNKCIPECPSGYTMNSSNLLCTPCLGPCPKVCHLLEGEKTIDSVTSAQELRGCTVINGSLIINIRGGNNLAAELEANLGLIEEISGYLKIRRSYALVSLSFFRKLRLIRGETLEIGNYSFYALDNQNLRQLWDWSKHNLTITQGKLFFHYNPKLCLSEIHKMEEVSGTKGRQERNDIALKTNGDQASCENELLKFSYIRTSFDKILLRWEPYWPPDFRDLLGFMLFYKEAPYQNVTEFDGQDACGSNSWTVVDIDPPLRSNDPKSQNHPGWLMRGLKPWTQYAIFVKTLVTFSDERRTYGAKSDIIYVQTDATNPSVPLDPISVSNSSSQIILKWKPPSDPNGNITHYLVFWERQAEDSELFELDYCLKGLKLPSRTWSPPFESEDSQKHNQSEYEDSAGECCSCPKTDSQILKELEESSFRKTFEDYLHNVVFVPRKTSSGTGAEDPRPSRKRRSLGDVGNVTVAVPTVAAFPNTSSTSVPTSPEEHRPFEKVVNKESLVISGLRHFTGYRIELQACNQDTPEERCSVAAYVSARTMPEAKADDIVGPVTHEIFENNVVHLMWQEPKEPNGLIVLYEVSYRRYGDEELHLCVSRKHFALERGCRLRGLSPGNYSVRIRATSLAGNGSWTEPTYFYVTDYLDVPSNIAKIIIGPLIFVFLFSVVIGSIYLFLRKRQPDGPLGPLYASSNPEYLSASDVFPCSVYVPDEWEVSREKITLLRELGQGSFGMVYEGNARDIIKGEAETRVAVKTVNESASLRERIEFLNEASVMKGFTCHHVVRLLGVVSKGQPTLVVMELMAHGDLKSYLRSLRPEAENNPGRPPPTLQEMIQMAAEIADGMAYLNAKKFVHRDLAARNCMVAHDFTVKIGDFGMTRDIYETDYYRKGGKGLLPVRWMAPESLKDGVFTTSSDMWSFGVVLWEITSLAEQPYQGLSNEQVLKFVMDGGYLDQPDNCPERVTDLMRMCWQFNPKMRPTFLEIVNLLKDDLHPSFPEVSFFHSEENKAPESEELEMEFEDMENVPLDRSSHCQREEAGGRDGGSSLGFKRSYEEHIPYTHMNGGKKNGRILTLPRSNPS
How it was run: (§1)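 Receptor-overexpressing NIH-3T3, 10% FBS, 37 °C; cpd 30 uM–1.5 nM × 2 h; stim IGF-1 30 ng/mL (IGF-1R) or insulin 3 ug/mL (IR), 15 min; lysate DELFIA, Eu anti-pTyr; % of stimulated signal.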

COLO205 (colon) = experiment: Inhibition of cell proliferation, CellTiter-Glo, COLO205; format: cell-based; details: Homo sapiens, COLO 205, 72 h
How it was run: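 Exponentially growing COLO205 cells in medium with 10% FBS were plated below 2000 cells/well at 37 °C, 5% CO2. Untreated wells served as controls.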

[3] = molecular target: T2, human IGF-1R (NIH-3T3 cells over expressing human IGF-1R) (Homo sapiens, UniProt P08069); experiment: IGF-1R cellular autophosphorylation (DELFIA); format: cell-based; details: IGF-1 stimulated
T2 construct: expressed in transfected cells; host or cells: NIH-3T3 (mouse fibroblasts)
T2 sequence (P08069 31-1367): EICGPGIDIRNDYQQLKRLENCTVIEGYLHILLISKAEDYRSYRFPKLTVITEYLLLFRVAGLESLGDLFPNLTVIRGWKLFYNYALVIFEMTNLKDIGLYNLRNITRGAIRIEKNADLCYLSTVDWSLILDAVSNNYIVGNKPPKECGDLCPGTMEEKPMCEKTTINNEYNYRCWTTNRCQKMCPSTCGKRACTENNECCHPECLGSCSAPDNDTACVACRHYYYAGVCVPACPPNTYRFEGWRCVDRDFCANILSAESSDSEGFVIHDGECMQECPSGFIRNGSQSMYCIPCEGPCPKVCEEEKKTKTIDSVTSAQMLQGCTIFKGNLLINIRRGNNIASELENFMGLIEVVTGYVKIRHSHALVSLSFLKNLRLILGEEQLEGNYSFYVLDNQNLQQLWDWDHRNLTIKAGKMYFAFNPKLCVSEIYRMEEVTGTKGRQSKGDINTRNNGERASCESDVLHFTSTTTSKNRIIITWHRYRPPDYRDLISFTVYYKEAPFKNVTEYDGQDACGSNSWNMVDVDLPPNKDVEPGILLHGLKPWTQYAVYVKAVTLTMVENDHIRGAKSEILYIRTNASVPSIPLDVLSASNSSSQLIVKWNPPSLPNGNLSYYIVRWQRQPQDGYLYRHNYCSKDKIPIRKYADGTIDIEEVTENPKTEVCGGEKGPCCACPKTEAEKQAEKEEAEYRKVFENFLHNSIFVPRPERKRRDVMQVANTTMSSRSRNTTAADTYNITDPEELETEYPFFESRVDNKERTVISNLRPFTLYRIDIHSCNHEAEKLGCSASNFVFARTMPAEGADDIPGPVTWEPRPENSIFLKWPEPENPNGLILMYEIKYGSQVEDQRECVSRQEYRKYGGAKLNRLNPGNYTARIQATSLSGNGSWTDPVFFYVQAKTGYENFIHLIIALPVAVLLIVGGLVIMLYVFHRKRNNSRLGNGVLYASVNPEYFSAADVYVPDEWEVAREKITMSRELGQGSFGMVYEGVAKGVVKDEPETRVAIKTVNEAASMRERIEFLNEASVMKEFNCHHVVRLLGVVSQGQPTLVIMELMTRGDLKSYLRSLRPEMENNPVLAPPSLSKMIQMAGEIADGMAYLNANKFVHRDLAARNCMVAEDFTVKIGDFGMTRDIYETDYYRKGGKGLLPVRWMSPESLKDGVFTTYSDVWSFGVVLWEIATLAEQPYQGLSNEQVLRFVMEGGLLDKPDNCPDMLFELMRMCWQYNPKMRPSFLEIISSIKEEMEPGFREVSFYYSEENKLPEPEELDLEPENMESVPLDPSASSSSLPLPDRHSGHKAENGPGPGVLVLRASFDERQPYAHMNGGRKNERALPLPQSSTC
How it was run: as §1

[4] = test system: LISN cell (mouse 3T3 fibroblasts transduced with human IGF-1R) tumors; experiment: In vivo efficacy, mice bearing LISN cell tumors; details: for tumor growth inhibition at day 21: LISN (start approx. 362 mm^3)
Method: E. In Vivo Efficacy—Mouse Models
The efficacy of the compounds of Examples 57 and 58 were assessed together in an in vivo efficacy experiment performed on mice bearing LISN cell (mouse 3T3 fibroblasts transduced with human IGF-1R) tumors. Fifty six female nude mice bearing subcutaneous LISN cell tumors were measured for tumor size and body weight and block randomized into seven groups of eight mice with an equal average tumor volume of approximately 200 mm3. Mice were dosed with either vehicle (20% SBE pH3.5), Example 57 or Example 58. The dosing schedules for each compound were based on previous experiments with the compounds and doses chosen to give the highest tumor growth inhibition and a dose response. Example 58 was dosed at 30, 100 and 300 mg/kg QD for 21 days while Example 57 was dosed at 30 mg/kg QD for 21 days, 15 mg/kg BID for 21 days and 30 mg/kg QDx3 days/week for 3 weeks.
The tumors on mice being treated with vehicle grew with the expected exponential growth throughout the 21 day study. […] The lower dose of 30 mg/kg of Example 58 achieved 28% tumor growth inhibition.
The efficacy of the compounds of Examples 237 and 219 were assessed together in an in vivo efficacy experiment performed on mice bearing LISN cell (mouse 3T3 fibroblasts transduced with human IGF-1R) tumors. Sixty four female nude mice bearing subcutaneous LISN cell tumors were measured for tumor size and body weight and block randomized into eight groups of eight mice with an equal average tumor volume of approximately 362 mm^3. Mice were dosed with either vehicle (20% SBE pH3.5), Example 237 or Example 219. The dosing schedules for each compound were based on previous experiments with the compounds and doses chosen to give the highest tumor growth inhibition and a dose response. Example 237 was administered at 30 and 60 mg/kg QD for 21 days and 30 mg/kg BID for 21 days while Example 219 was administered at 50 and 100 mg/kg QD for 21 days, 25 and 50 mg/kg BID for 21 days.
The tumors on mice being treated with vehicle grew with the expected exponential growth throughout the 21 day study. […] The lower dose of 30 mg/kg QD of Example 237 achieved 15% tumor growth inhibition at day 21 (note: 2 animals were euthanized prior to the last measurement). […] This recovered to 3% by the end of dosing and fully recovered after dosing was concluded. […] This recovered fully within 4 days after the completion of dosing.

Row | Structure (SMILES) | IC50 [1] | IC50 [2] | IC50 (COLO205 (colon)) | IC50 [3] | further results
1 | CCOc1cc(N2CCC(CCS(C)(=O)=O)CC2)c(C)cc1Nc1nccc(-c2c(-c3ccc(OC)c(C(=O)Nc4c(F)cccc4F)c3)nc3ccccn23)n1 [Example 219, N-(2,6-difluorophenyl)-5-(3-{2-[(2-(ethyloxy)-5-methyl-4-{4-[2-(methylsulfonyl)ethyl]-1-piperidinyl}phenyl)amino]-4-pyrimidinyl}imidazo[1,2-a]pyridin-2-yl)-2-(methyloxy)benzamide] | < 250 nM | < 100 nM | < 250 nM | < 100 nM | tumor growth inhibition at day 21 ([4]; 25 mg/kg BID for 21 days): 16%; tumor growth inhibition at day 21 ([4]; 50 mg/kg BID for 21 days): 76%; tumor growth inhibition at day 21 ([4]; 50 mg/kg QD for 21 days): 29%; tumor growth inhibition at day 21 ([4]; 100 mg/kg QD for 21 days): 44%; time to full recovery of body weight after the completion of dosing ([4]; LISN, 25 mg/kg BID and 50 mg/kg BID): ≤ 4 days; body weight loss ([4]; LISN, 25 mg/kg BID for 21 days): 4%; body weight loss ([4]; LISN, 50 mg/kg BID for 21 days): 6%; body weight loss ([4]; LISN, 100 mg/kg and 50 mg/kg QD): no body weight loss
2 | COc1cc(N2CCC(N3CCN(S(C)(=O)=O)CC3)CC2)ccc1Nc1nccc(-c2c(-c3cccc(C(=O)Nc4c(F)cccc4F)c3)nc3ccccn23)n1 [Example 58, N-(2,6-difluorophenyl)-3-(3-{2-[(2-(methyloxy)-4-{4-[4-(methylsulfonyl)-1-piperazinyl]-1-piperidinyl}phenyl)amino]-4-pyrimidinyl}imidazo[1,2-a]pyridin-2-yl)benzamide] | < 250 nM | < 100 nM | 250 to 1000 nM | < 100 nM | tumor growth inhibition ([4]; LISN, 30 mg/kg QD for 21 days): 28%; tumor growth inhibition ([4]; LISN, 100 mg/kg QD for 21 days): 46%; tumor growth inhibition ([4]; LISN, 300 mg/kg QD for 21 days): 45%; effect on body weight loss ([4]; LISN, 30, 100 and 300 mg/kg QD, throughout the study): no effect
3 | CCCc1cc(N2CCC(N3CCCCC3)CC2)ccc1Nc1nccc(-c2c(-c3cccc(C(=O)Nc4c(F)cccc4F)c3)nc3ccccn23)n1 [Example 41, 3-[3-(2-{[4-(1,4′-bipiperidin-1′-yl)-2-propylphenyl]amino}-4-pyrimidinyl)imidazo[1,2-a]pyridin-2-yl]-N-(2,6-difluorophenyl)benzamid] | 250 to 1000 nM | 100 to 500 nM | 250 to 1000 nM | < 100 nM | 
4 | CCCN1CCN(c2ccc(Nc3nccc(-c4c(-c5ccc(OC)c(C(=O)Nc6c(F)cccc6F)c5)nc5ccccn45)n3)c(OC)c2)CC1 [Example 174, N-(2,6-difluorophenyl)-2-(methyloxy)-5-[3-(2-{[2-(methyloxy)-4-(4-propyl-1-piperazinyl)phenyl]amino}-4-pyrimidinyl)imidazo[1,2-a]pyridin-2-yl]benzamide] | < 250 nM | < 100 nM | 250 to 1000 nM | < 100 nM | 
5 | COCCN(CCOC)C1CCN(c2ccc(Nc3nccc(-c4c(-c5cccc(C(=O)Nc6c(F)cccc6F)c5)nc5ccccn45)n3)c(OC)c2)CC1 [Example 49, 3-[3-(2-{[4-(4-{bis[2-(methyloxy)ethyl]amino}-1-piperidinyl)-2-(methyloxy)phenyl]amino}-4-pyrimidinyl)imidazo[1,2-a]pyridin-2-yl]-N-(2,6-difluorophenyl)benzamide] | 250 to 1000 nM | < 100 nM | 250 to 1000 nM | 100 to 500 nM | 
6 | CCc1cc(Nc2nccc(-c3c(-c4ccc(OC)c(C(=O)Nc5c(F)cccc5F)c4)nc4ccccn34)n2)c(OC)cc1N1CCC(N2CCN(S(C)(=O)=O)CC2)CC1 [Example 237, N-(2,6-difluorophenyl)-5-(3-{2-[(5-ethyl-2-(methyloxy)-4-{4-[4-(methylsulfonyl)-1-piperazinyl]-1-piperidinyl}phenyl)amino]-4-pyrimidinyl}imidazo[1,2-a]pyridin-2-yl)-2-(methyloxy)benzamide] | < 250 nM | < 100 nM | < 250 nM | < 100 nM | tumor growth inhibition at day 21 ([4]; 30 mg/kg BID for 21 days): 84%; tumor growth inhibition at day 21 ([4]; 30 mg/kg QD for 21 days, 2 animals euthanized prior to the last measurement): 15%; tumor growth inhibition at day 21 ([4]; 60 mg/kg QD for 21 days): 41%; body weight loss by the end of dosing ([4]; LISN, 30 mg/kg BID): 3%; initial body weight loss ([4]; LISN, 30 mg/kg BID): 6%; effect on body weight loss ([4]; LISN, other groups (30 and 60 mg/kg QD)): no effect
7 | COc1cc(C2CCN(C3CCN(CCF)CC3)CC2)ccc1Nc1nccc(-c2c(-c3cccc(C(=O)Nc4c(F)cccc4F)c3)nc3ccccn23)n1 [Example 100] | 250 to 1000 nM | < 100 nM | 250 to 1000 nM | < 100 nM | 
8 | CCc1cc(Nc2nccc(-c3c(-c4ccc(OC)c(C(=O)Nc5c(F)cccc5F)c4)nc4ccccn34)n2)c(OC)cc1N1CCC(CCS(C)(=O)=O)CC1 [Example 207, N-(2,6-difluorophenyl)-5-(3-{2-[(5-ethyl-2-(methyloxy)-4-{4-[2-(methylsulfonyl)ethyl]-1-piperidinyl}phenyl)amino]-4-pyrimidinyl}imidazo[1,2-a]pyridin-2-yl)-2-(methyloxy)benzamide] | < 250 nM | < 100 nM | < 250 nM | < 100 nM | 
9 | CCCN1CCC(c2ccc(Nc3nccc(-c4c(-c5ccc(OC)c(C(=O)Nc6c(F)cccc6F)c5)nc5ccccn45)n3)c(OC)c2)CC1 [Example 137, N-(2,6-difluorophenyl)-2-(methyloxy)-5-[3-(2-{[2-(methyloxy)-4-(1-propyl-4-piperidinyl)phenyl]amino}-4-pyrimidinyl)imidazo[1,2-a]pyridin-2-yl]benzamide] | < 250 nM | < 100 nM | 250 to 1000 nM | < 100 nM | 
10 | CCOc1cc(N2CCC(N3CCN(S(C)(=O)=O)CC3)CC2)c(CC)cc1Nc1nccc(-c2c(-c3ccc(OC)c(C(=O)Nc4c(F)cccc4F)c3)nc3ccccn23)n1 [Example 204, N-(2,6-difluorophenyl)-5-(3-{2-[(5-ethyl-2-(ethyloxy)-4-{4-[4-(methylsulfonyl)-1-piperazinyl]-1-piperidinyl]phenyl)amino]-4-pyrimidinyl}imidazo[1,2-a]pyridin-2-yl)-2-(methyloxy)benzamide] | < 250 nM | < 100 nM | < 250 nM | < 100 nM | 
11 | CCCN1CCC(c2ccc(Nc3nccc(-c4c(-c5ccc(OCC)c(C(=O)Nc6c(F)cccc6F)c5)nc5ccccn45)n3)c(OCC)c2)CC1 [Example 156, N-(2,6-difluorophenyl)-2-(ethyloxy)-5-[3-(2-{[2-(ethyloxy)-4-(1-propyl-4-piperidinyl)phenyl]amino}-4-pyrimidinyl)imidazo[1,2-a]pyridin-2-yl]benzamide] | < 250 nM | < 100 nM | 250 to 1000 nM | < 100 nM | 
